Consider one compound from patent US5506359A, “Cocaine analogues and their use as cocaine drug therapies and therapeutic and imaging agents for neurodegenerative disorders” (priority 1993, dated 1996).

SMILES strings stand for the structures.

The test system of assay [1] is [^3 H]CFT binding sites in monkey caudate-putamen. Particulars: cited from earlier work.
The test system of assay [2] is squirrel monkeys (i.v. drug self-administration). The assay can be described thus: Drug self-administration under second order schedule. Format: in vivo, squirrel monkeys (Saimiri sciureus). From the text:
To determine whether CFT also mimicked cocaine's behavioral effects in vivo (specifically the reinforcing and interoceptive effects), squirrel monkeys were trained to respond under a second order schedule of i.v. drug self-administration (see detailed description below). […] The results were consistent with the view that the reinforcing effects of cocaine are mediated by cocaine recognition sites associated with the dopamine uptake system.
For drug discrimination and self administration studies, experiments are conducted with rodents or squirrel monkeys (Saimiri sciureus) seated in standard primate chairs enclosed in ventilated, sound-attenuating chambers. The chairs are equipped with response levers, stimulus lights, food pellet dispensers, and pumps for injecting drugs intravenously. […] Response rates and temporal patterns of responding are monitored continuously during daily experimental sessions. Effects of drugs are analyzed in individual subjects by comparing performances during drug sessions with those during control sessions. […]
Initially, responding is maintained using an injection dose of 100 μg/kg cocaine, which usually is optimal for developing i.v. self-administration.After consistent rates and patterns of responding are maintained by cocaine, the effects of a full range of doses of cocaine and of selected candidate drugs is determined. […]

Assay [3] has as its system squirrel monkeys trained to discriminate cocaine. Briefly: Drug discrimination (cocaine versus saline). Format: in vivo, squirrel monkeys (Saimiri sciureus). Particulars: training dose cocaine 0.3-0.56 mg/kg. As for the experimental part: The subjective (interoceptive) effects of cocaine were studied in monkeys through the use of a drug discrimination procedure. […] Squirrel monkeys were trained to discriminate cocaine (0.3-0.56 mg/kg) from saline using a two-level choice procedure.
For drug discrimination and self administration studies, experiments are conducted with rodents or squirrel monkeys (Saimiri sciureus) seated in standard primate chairs enclosed in ventilated, sound-attenuating chambers. The chairs are equipped with response levers, stimulus lights, food pellet dispensers, and pumps for injecting drugs intravenously. Four animals are studied in each experiment, with each subject receiving all drug treatments whenever possible. Response rates and temporal patterns of responding are monitored continuously during daily experimental sessions. Effects of drugs are analyzed in individual subjects by comparing performances during drug sessions with those during control sessions. […]
Drug discrimination experiments are conducted using cumulative-dose procedures similar to those described in Madras et al. (Soc. Neurosci. Abst. 16:14, 1990; Pharmacol. Biochem. Behav. 35:949-953, 1990) and Spealman et al. (J. Pharmacol. Exp. Ther. 258:945-953, 1991). […] Good agreement has been found between the effects of drugs determined by cumulative-dose procedures and by single-dose procedures when appropriate parameters are selected. […]

The target of assay [4] is dopamine transporter, human caudate nucleus and putamen (Homo sapiens, UniProt Q01959). The assay can be described thus: [^3 H]CFT binding to homogenates of human caudate nucleus and putamen. Particulars: human caudate nucleus and putamen homogenates. From the text:
In order to determine whether [^3 H]CFT labels sites associated with the dopamine transporter, the binding of [^3 H]CFT to homogenates of human caudate nucleus and putamen, was characterized.

dopamine transporter, human caudate nucleus and putamen, sequence (Q01959 whole entry): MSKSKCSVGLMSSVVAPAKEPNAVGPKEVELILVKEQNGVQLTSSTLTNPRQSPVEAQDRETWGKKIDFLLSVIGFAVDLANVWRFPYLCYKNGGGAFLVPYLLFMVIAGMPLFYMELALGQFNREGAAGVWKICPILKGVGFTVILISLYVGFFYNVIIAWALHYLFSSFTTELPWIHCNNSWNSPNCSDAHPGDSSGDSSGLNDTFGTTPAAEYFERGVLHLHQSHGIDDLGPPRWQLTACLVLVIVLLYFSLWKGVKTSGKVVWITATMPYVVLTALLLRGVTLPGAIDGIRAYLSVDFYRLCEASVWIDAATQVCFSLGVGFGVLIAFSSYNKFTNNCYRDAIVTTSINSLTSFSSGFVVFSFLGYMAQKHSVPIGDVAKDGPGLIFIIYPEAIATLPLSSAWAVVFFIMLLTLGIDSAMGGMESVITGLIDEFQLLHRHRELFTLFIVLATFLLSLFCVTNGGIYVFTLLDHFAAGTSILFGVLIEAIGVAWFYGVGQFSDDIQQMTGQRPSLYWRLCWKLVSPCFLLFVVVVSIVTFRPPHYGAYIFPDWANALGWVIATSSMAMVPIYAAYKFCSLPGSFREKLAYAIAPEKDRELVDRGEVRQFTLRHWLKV

Turning to `COC(=O)[C@H]1[C@@H](c2ccc(F)cc2)C[C@@H]2CC[C@H]1N2C` [4'a (CFT), 2β-carbomethoxy-3β-(4-fluorophenyl)tropane], the “extent of displacement of [^3 H]CFT” value in assay [1] is “full displacement of [^3 H]CFT”. Further, the “number of binding components” value in assay [1] (competition curves) is given as “at least two binding components”. In assay [1] (displacement of [^3 H]CFT), the “steepness of competition curve” value is 0.61-0.89. Moreover, in assay [2], the “potency in maintaining responding relative to cocaine” value is on record as “approximately six”. In assay [3], the “generalization to cocaine cue” value is on record as “fully generalized to the cocaine cue”. In addition, in assay [4], the “rank order of potency for inhibiting [^3 H]CFT binding” value is given as “Lu 19-005>CFT, mazindol, GBR 12909>(-)-cocaine>bupropion>(+)-cocaine”.
